Test results taken from publication PMC7684622, “The application of L‐glutaminase for the synthesis of the immunomodulatory γ‐D‐glutamyl‐L‐tryptophan and the kokumi‐imparting γ‐D‐glutamyl peptides” (Food Science & Nutrition, 2020).

What was measured:
Type in all cases: biochemical
[1] = tested on: T1, L-glutaminase of Bacillus amyloliquefaciens; test: transpeptidation, gamma-D-Glu-L-Trp formed, by HPLC / UPLC-MS; conditions: gamma-glutamyl donor; fixed 25 mM L-Trp; apparent; read-out: Synthesis
T1 construct: gene ggt; commercial enzyme preparation (Amano Enzyme China); called L-Gln amidohydrolase EC 3.5.1.2 with gamma-glutamyl transpeptidase activity
Description: transpeptidation, gamma-D-Glu-L-Trp formed, by HPLC / UPLC-MS on L-glutaminase of Bacillus amyloliquefaciens

[2] = tested on: T1, L-glutaminase of Bacillus amyloliquefaciens; test: transpeptidation, gamma-L-Glu-L-Trp formed, by HPLC / UPLC-MS; conditions: gamma-glutamyl donor; fixed 25 mM L-Trp; apparent; read-out: Synthesis
Description: transpeptidation, gamma-L-Glu-L-Trp formed, by HPLC / UPLC-MS on L-glutaminase of Bacillus amyloliquefaciens

[3] = tested on: T1, L-glutaminase of Bacillus amyloliquefaciens; test: transpeptidation, product by HPLC / UPLC-MS; conditions: acceptor; fixed 25 mM D-Gln; apparent; read-out: Synthesis
Description: transpeptidation, product by HPLC / UPLC-MS on L-glutaminase of Bacillus amyloliquefaciens

[4] = tested on: T1, L-glutaminase of Bacillus amyloliquefaciens; test: hydrolysis, HPLC / UPLC-MS; conditions: hydrolysis reaction; apparent
Description: hydrolysis, HPLC / UPLC-MS on L-glutaminase of Bacillus amyloliquefaciens

Km [3] [mM] | Km [4] [mM] | Structure (SMILES) | also measured
– | – | NC(=O)CC[C@@H](N)C(=O)O [D-Gln] | Km [1]: 5.53 ± 0.98 mM
– | – | NC(=O)CC[C@H](N)C(=O)O [L-Gln] | Km [2]: 0.98 ± 0.08 mM
88.8 ± 6.12 | – | CSCC[C@H](N)C(=O)O [L-Met] | –
46.3 ± 2.32 | – | N[C@@H](Cc1ccccc1)C(=O)O [L-Phe] | –
32.5 ± 3.86 | – | N[C@@H](Cc1c[nH]c2ccccc12)C(=O)O [L-Trp] | –
76.6 ± 3.25 | – | CC(C)[C@H](N)C(=O)O [L-Val] | –
– | 62.2 ± 4.61 | CSCC[C@H](NC(=O)CC[C@@H](N)C(=O)O)C(=O)O [γ-D-Glu-L-Met] | –
– | 52.8 ± 3.02 | N[C@H](CCC(=O)N[C@@H](Cc1ccccc1)C(=O)O)C(=O)O [γ-D-Glu-L-Phe] | –
– | 36.7 ± 2.86 | N[C@H](CCC(=O)N[C@@H](Cc1c[nH]c2ccccc12)C(=O)O)C(=O)O [γ-D-Glu-L-Trp] | –
– | 68.8 ± 5.25 | CC(C)[C@H](NC(=O)CC[C@@H](N)C(=O)O)C(=O)O [γ-D-Glu-L-Val] | –
– | 15.7 ± 1.82 | N[C@@H](CCC(=O)N[C@@H](Cc1c[nH]c2ccccc12)C(=O)O)C(=O)O [γ-L-Glu-L-Trp] | –
– | 90.4 ± 6.25 | CC(C)[C@H](NC(=O)CC[C@@H](NC(=O)CC[C@@H](N)C(=O)O)C(=O)O)C(=O)O [γ-[D-Glu]2-L-Val] | –
